The text below walks through data of patent US20250051263A1, “NOVEL IONIZABLE LIPIDS AND LIPID NANOPARTICLES AND METHODS OF USING THE SAME” (Sail Biomedicines, Inc., priority 2021, published 2025).

SMILES strings stand for the structures.

Data set [1] in a line: LNP size and polydispersity, Zetasizer Ultra. Format: physicochemical. Particulars: Example 5 LNP lipid:DOPE:Plant Cholesterol:DMPE-PEG2k 35:16:46.5:2.5, FLUC/EPO 1:1 mRNA, N:P 6:1. The source says:
(§1) All other compositions (i.e., compositions of MC3 (a commercially available ionizable lipid having a chemical name of (6Z,9Z,28Z,31Z)-heptatriacont-6,9,28,31-tetraene-19-yl 4-(dimethylamino)butanoate, and compositions of novel ionizable lipids 7669, 7671, 7668, 767, 7650) are composed of ionizable lipid:structural lipid:sterol:PEG-lipid (SDA lipid #:DSPC:cholesterol:14:0 PEG2000 PE) at a molar ratio of […], respectively. Lipids are solubilized in ethanol. Compositions are then handled as above, except the formulations are maintained at ionizable lipid to mRNA N:P ratio of 6:1. The lipid mix and mRNA solution are mixed at a 1:3 ratio by volume, respectively, on a NanoAssemblr Ignite (Precision Nanosystems) at a total flow rate of 9 mL/min. Resulting compositions are then loaded into Slide-A-Lyzer G2 dialysis cassettes (10 k MWCO) and dialyzed in 200 times sample volume of 1×PBS for 4 hrs at room temp with gentle stirring. The PBS is refreshed, and the compositions are further dialyzed for at least 14 hrs at 4° C. with gentle stirring. The dialyzed compositions are then collected and concentrated by centrifugation at 2000×g using Amicon Ultra centrifugation filters (100 k MWCO). Concentrated particles are characterized for size, polydispersity, and particle concentration using Zetasizer Ultra (Malvern Panalytical) and for mRNA encapsulation efficiency using Quant-iT RiboGreen RNA Assay Kit (ThermoFisher Scientific).
(§2) The lipid mix and mRNA solution were mixed at a 1:3 ratio by volume, respectively, on the NanoAssemblr Ignite (Precision Nanosystems) at a total flow rate of 9 mL/min. Resulting formulations were then loaded into Slide-A-Lyzer G2 dialysis cassettes (10 k MWCO) and dialyzed in 200 times sample volume of 1×PBS for 2 hrs at room temperature. The PBS was refreshed, and the formulations were further dialyzed for at least 14 hrs at 4° C. with gentle stirring. The dialyzed formulations were then collected and concentrated by centrifugation at 3000×g using Amicon Ultra centrifugation filters (100 k MWCO). The concentrated formulations were characterized for size, polydispersity, and particle concentration using Zetasizer Ultra (Malvern Panalytical) and for mRNA encapsulation efficiency using Quant-iT RiboGreen RNA Assay Kit (ThermoFisher Scientific).
(§3) For each LNP composition, the lipid mix and mRNA solution were mixed at a 1:3 ratio by volume, respectively, on a NanoAssemblr Ignite (Precision Nanosystems) at a total flow rate of 9 mL/min. The resulting compositions were then loaded into Slide-A-Lyzer G2 dialysis cassettes (10 k MWCO) and dialyzed in 200 times sample volume of 1×PBS for 2 hours at room temperature with gentle stirring. The PBS was refreshed, and the compositions were further dialyzed for at least 14 hours at 4° C. with gentle stirring. The dialyzed compositions were then collected and concentrated by centrifugation at 3000×g using Amicon Ultra centrifugation filters (100 k MWCO). The concentrated particles were characterized for size, polydispersity, and particle concentration using Zetasizer Ultra (Malvern Panalytical) and for mRNA encapsulation efficiency using Quant-iT RiboGreen RNA Assay Kit (ThermoFisher Scientific).

Data set [2] is described as follows: mRNA encapsulation efficiency, Quant-iT RiboGreen RNA Assay. It is filed as physicochemical. Conditions: Example 5 LNP lipid:DOPE:Plant Cholesterol:DMPE-PEG2k 35:16:46.5:2.5, FLUC/EPO 1:1 mRNA, N:P 6:1.
Excerpt: as §1, §2, §3

Consider `CCCCCCCCCOC(=O)CCCCCCCN(CCCCCCCC(=O)OC(CCCCCCCC)CCCCCCCC)CCNC(=O)CCC(=O)NCCN(CCCCCCCC(=O)OCCCCCCCCC)CCCCCCCC(=O)OC(CCCCCCCC)CCCCCCCC` [Compound 2213, nonyl 8-[2-[[4-[2-[(8-nonoxy-8-oxo-octyl)-[8-(1-octylnonoxy)-8-oxo-octyl]amino]ethylamino]-4-oxo-butanoyl]amino]ethyl-[8-(1-octylnonoxy)-8-oxo-octyl]amino]octanoate], for which, in data set [1], the PDI is listed as 0.10 and the “Size (nm)” value is 63.9 nm. Also, the “% EE” value in data set [2] was determined as 92.5%.
As to `CCCCCCCCCCCOC(=O)CCCCCN(CCCCCCCC(=O)OC(CCCCCCCC)CCCCCCCC)CCN1CCN(CCN(CCCCCCCC(=O)OC(CCCCCCCC)CCCCCCCC)CCCCCC(=O)OCCCCCCCCCCC)CC1` [Compound 2248, 1-octylnonyl 8-[2-[4-[2-[[8-(1-octylnonoxy)-8-oxo-octyl]-(6-oxo-6-undecoxy-hexyl)amino]ethyl]piperazin-1-yl]ethyl-(6-oxo-6-undecoxy-hexyl)amino]octanoate], in data set [1], the PDI worked out at 0.10 and the “Size (nm)” value is given as 83.5 nm. In addition, the “% EE” value in data set [2] came out at 95.0%.
As to `CCCCCCCCC(CCCCCCCC)OC(=O)CCCCCCCN(CCCCCCCC(=O)OC(CCCCCCCC)CCCCCCCC)CCNC(=O)CCC(=O)NCCN(CCCCCCCC(=O)OC(CCCCCCCC)CCCCCCCC)CCCCCCCC(=O)OC(CCCCCCCC)CCCCCCCC` [Compound 2275, 1-octylnonyl 8-[2-[[4-[2-[bis[8-(1-octylnonoxy)-8-oxo-octyl]amino]ethylamino]-4-oxo-butanoyl]amino]ethyl-[8-(1-octylnonoxy)-8-oxo-octyl]amino] octanoate], in data set [1], the PDI worked out at 0.10 and the “Size (nm)” value came out at 67.4 nm. For the same compound, in data set [2], the “% EE” value was 94.7%.
For `CCCCCCCCCCCNC(=O)CCCCCN(CCCCCCCC(=O)NC(CCCCCCCC)CCCCCCCC)CCNC(=O)CCC(=O)NCCN(CCCCCCCC(=O)NC(CCCCCCCC)CCCCCCCC)CCCCCC(=O)NCCCCCCCCCCC` [Compound 2282, N,N′-bis[2-[[8-(1-octylnonylamino)-8-oxo-octyl]-[6-oxo-6-(undecylamino)hexyl]amino]ethyl]butanediamide], in data set [1], the PDI came out at 0.16 and the “Size (nm)” value was determined as 73.1 nm. Also, the “% EE” value in data set [2] is 94.7%.
As to `CCCCCCCCC(CCCCCCCC)OC(=O)CCCCCCCN(CCCCCCCC(=O)OC(CCCCCCCC)CCCCCCCC)CCNC(=O)CCCC(=O)NCCN(CCCCCCCC(=O)OC(CCCCCCCC)CCCCCCCC)CCCCCCCC(=O)OC(CCCCCCCC)CCCCCCCC` [Compound 2320, 1-octylnonyl 8-[2-[[5-[2-[bis[8-(1-octylnonoxy)-8-oxo-octyl]amino]ethylamino]-5-oxo-pentanoyl]amino]ethyl-[8-(1-octylnonoxy)-8-oxo-octyl]amino]octanoate], in data set [1], the PDI stood at 0.15 and the “Size (nm)” value was found to be 126.1 nm. Besides, in data set [2], the “% EE” value came to 93.4%.
In the same order, the values of `CCCCCC(CCCCC)CCCOC(=O)CCCCCCCN(CCCCCCCC(=O)OCCCC(CCCCC)CCCCC)CCNC(=O)CCC(=O)NCCN(CCCCCCCC(=O)OCCCC(CCCCC)CCCCC)CCCCCCCC(=O)OCCCC(CCCCC)CCCCC` [Compound 2332, bis(4-pentyl-nonyl)13,16-dioxo-9,20-bis(8-oxo-8-((4-pentylnon-yl)oxy)octyl)-9,12,17,20-tetraazaocta-cosanedioate] are 0.12, 68.1 nm and 98.0%.
Taken in the same sequence, the figures for `CCCCCCCCCC(C)COC(=O)CCCCCN(CCCCCCCC(=O)OC(CCCCCCCC)CCCCCCCC)CCNC(=O)CCC(=O)NCCN(CCCCCCCC(=O)OC(CCCCCCCC)CCCCCCCC)CCCCCC(=O)OCC(C)CCCCCCCCC` (stereo not drawn) [Compound 2355, 1-octylnonyl 8-[[6-(2-methylundecoxy)-6-oxo-hexyl]-[2-[[4-[2-[[6-(2-methylundecoxy)-6-oxo-hexyl]-[8-(1-octylnonoxy)-8-oxo-octyl]amino]ethylamino]-4-oxo-butanoyl]amino]ethyl]amino]octanoate] were 0.07, 74.7 nm and 94.9%.
For the compound `CCCCCCCCCCC(CC)OC(=O)CCCCCN(CCCCCCCC(=O)OC(CCCCCCCC)CCCCCCCC)CCNC(=O)/C=C/C(=O)NCCN(CCCCCCCC(=O)OC(CCCCCCCC)CCCCCCCC)CCCCCC(=O)OC(CC)CCCCCCCCCC` (stereo not drawn) [Compound 2378, 1-octylnonyl 8-[[6-(1-ethylundecoxy)-6-oxo-hexyl]-[2-[[(E)-4-[2-[[6-(1-ethylundecoxy)-6-oxo-hexyl]-[8-(1-octylnonoxy)-8-oxo-octyl]amino]ethylamino]-4-oxo-but-2-enoyl]amino]ethyl]amino]octanoate], in data set [1], the PDI is listed as 0.08 and the “Size (nm)” value was determined as 107.8 nm. For the same compound, in data set [2], the “% EE” value is listed as 93.0%.
For the compound `CCCCCCCCCCCOC(=O)CCCCCN(CCCCCCCC(=O)OCCCC(CCCCC)CCCCC)CCNC(=O)/C=C/C(=O)NCCN(CCCCCCCC(=O)OCCCC(CCCCC)CCCCC)CCCCCC(=O)OCCCCCCCCCCC` [Compound 2382, 4-pentylnonyl 8-[2-[[(E)-4-oxo-4-[2-[[8-oxo-8-(4-pentylnonoxy)octyl]-(6-oxo-6-undecoxy-hexyl)amino]ethylamino]but-2-enoyl]amino]ethyl-(6-oxo-6-undecoxy-hexyl)amino]octanoate], in data set [1], the PDI came to 0.13 and the “Size (nm)” value is reported as 105.2 nm. Moreover, the “% EE” value in data set [2] turned out to be 87.3%.
Taken in the same sequence, the figures for `CCCCCCCCCCCOC(=O)CCCCCN(CCCCCCCC(=O)OC(CCCCCC)CCCCCCCC)CCNC(=O)CCC(=O)NCCN(CCCCCCCC(=O)OC(CCCCCC)CCCCCCCC)CCCCCC(=O)OCCCCCCCCCCC` (stereo not drawn) [Compound 2390, 1-hexylnonyl 8-[2-[[4-[2-[[8-(1-hexylnonoxy)-8-oxo-octyl]-(6-oxo-6-undecoxy-hexyl)amino]ethylamino]-4-oxo-butanoyl]amino]ethyl-(6-oxo-6-undecoxy-hexyl)amino]octanoate] were 0.09, 71.6 nm and 90.6%.
